From patent US20260285849A1, “METHYLOPHIOPOGONONE A DERIVATIVE, AND PREPARATION AND USE THEREOF” (INSTITUTE OF MATERIA MEDICA, CHINESE ACADEMY OF MEDICAL …, priority 2022, published 2026) come the findings set out here.

Common to all, as to type: in vivo
For assay [1], the system named is mice with hypertensive heart disease induced by angiotensin II (AngII). As to the kind of experiment: AngII-induced hypertensive heart disease mouse model: echocardiogram. To be noted: left ventricle, day 14. On the procedure:
After male C57BL/6 mice were acclimated to the environment, they were randomly divided into 10 groups, namely the blank control group, the AngII model group, the AngII+telmisartan 10 mg/kg positive control group, the AngII+spironolactone 20 mg/kg positive control group, the AngII+Formula I (0.1, 0.5, 2 mg/kg) groups, and the AngII+Formula II (0.1, 0.5, 2 mg/kg) groups. The mice in the drug administration groups were intragastrically administered the corresponding doses of Formula I and Formula II compounds once a day at the same time. The mice in the positive control groups were intragastrically administered the corresponding doses of telmisartan and spironolactone once a day. The mice in the blank control group and the model group were given the same amount of solvent (0.5% CMC-Na solution). The administration volume was 10 mL/kg, and the administration was continuous for 14 days.
From the 1st to the 13th day of drug administration, AngII modeling was carried out. The mice in the blank control group were subcutaneously injected with normal saline, and the mice in the other groups were subcutaneously injected with 1.44 mg/kg of AngII (modeling was carried out 2 h after drug administration), for a total of 13 times.
Echocardiogram detection: On the 14th day of drug administration (after 13 times of AngII modeling), 5 animals were randomly selected from each group. After anesthesia and fixation, the chest hair was shaved, and a small amount of coupling agent was applied to the chest. The Vevo 770 Imaging System, a small animal ultrasonic real-time imaging system, was used for echocardiogram examination. All echocardiogram indexes of the animals were continuously measured for 3 cardiac cycles, and the average value was taken.

Assay [2] shares this test system. As to the kind of experiment: AngII-induced hypertensive heart disease mouse model: serum cTn-T and CK-MB (ELISA). On the procedure:
(§1) After male C57BL/6 mice were acclimated to the environment, they were randomly divided into 10 groups, namely the blank control group, the AngII model group, the AngII+telmisartan 10 mg/kg positive control group, the AngII+spironolactone 20 mg/kg positive control group, the AngII+Formula I (0.1, 0.5, 2 mg/kg) groups, and the AngII+Formula II (0.1, 0.5, 2 mg/kg) groups. The mice in the drug administration groups were intragastrically administered the corresponding doses of Formula I and Formula II compounds once a day at the same time. The mice in the positive control groups were intragastrically administered the corresponding doses of telmisartan and spironolactone once a day. The mice in the blank control group and the model group were given the same amount of solvent (0.5% CMC-Na solution). The administration volume was 10 mL/kg, and the administration was continuous for 14 days. From the 1st to the 13th day of drug administration, AngII modeling was carried out. The mice in the blank control group were subcutaneously injected with normal saline, and the mice in the other groups were subcutaneously injected with 1.44 mg/kg of AngII (modeling was carried out 2 h after drug administration), for a total of 13 times. Detection of serum biomarkers of myocardial injury: After the experiment, the animals were sacrificed by enucleation to obtain blood. The blood was left to stand at room temperature for 2 hours, and then centrifuged at 3500 rpm for 20 minutes to separate the serum. The contents of serum cardiac troponin cTn-T and myocardial enzyme CK-MB were determined according to the instructions of the ELISA kit.
For orientation: An ELISA detects its analyte on a solid surface through an enzyme-linked reagent.

For assay [3] the test system is unchanged. As to the kind of experiment: AngII-induced hypertensive heart disease mouse model: serum cAMP (ELISA). On the procedure:
as §1, with “CAMP level:” for “biomarkers of myocardial injury:”, “content” for “contents”, “cAMP was” for “cardiac troponin cTn-T and myocardial enzyme CK-MB were”

Assay [4] shares this test system. As to the kind of experiment: AngII-induced hypertensive heart disease mouse model: serum TNF-α (ELISA). On the procedure:
as §1, with “inflammatory factors:” for “biomarkers of myocardial injury:”, “content” for “contents”, “TNF-α was” for “cardiac troponin cTn-T and myocardial enzyme CK-MB were”

Where [5] appears, read: 0.1 mg/kg intragastric once a day.
[6] abbreviates: 0.5 mg/kg intragastric once a day.
The mark [7] stands for this setting: 2 mg/kg intragastric once a day.
[8] abbreviates: 0.1 mg/kg intragastric once a day 14 days.
Where [9] appears, read: 0.5 mg/kg intragastric once a day 14 days.
Where [10] appears, read: 2 mg/kg intragastric once a day 14 days.
Setting [11] is: 20 mg/kg intragastric once a day.
[12] abbreviates: 20 mg/kg intragastric once a day 14 days.
Setting [13] is: 10 mg/kg intragastric once a day.
The mark [14] stands for this setting: 10 mg/kg intragastric once a day 14 days.

`Cc1c(O)cc(O)c2c(=O)c(Cc3ccc4c(c3)OCO4)coc12` [Formula II, 3-(benzo[d][1,3]dioxol-5-ylmethyl)-5,7-dihydroxy-8-methyl-4H-chromen-4-one]: the “Post-diastolic posterio rwall thickness” value turned out to be 0.72 ± 0.08 mm in assay [1] (setting [5]), 0.69 ± 0.06 mm in assay [1] (setting [6]) and 0.72 ± 0.06 mm in assay [1] (setting [7]). Further, the figures for the “Posterior wall thickness in systole” value in assay [1] (setting [5]), in assay [1] (setting [6]) and in assay [1] (setting [7]) were 0.91 ± 0.10 mm, 0.87 ± 0.04 mm and 0.82 ± 0.11 mm, respectively. Also, the CK-MB amounted to 15.36 ± 2.41 ng/mL in assay [2] (setting [8]), 14.07 ± 1.33 ng/mL in assay [2] (setting [9]) and 13.39 ± 2.57 ng/mL in assay [2] (setting [10]). Moreover, the cTn-T turned out to be 153.56 ± 13.05 ng/L in assay [2] (setting [8]), 145.15 ± 15.79 ng/L in assay [2] (setting [9]) and 136.64 ± 18.24 ng/L in assay [2] (setting [10]). For the same compound, the cAMP in assay [3] (setting [8]) is given as 24.81 ± 1.63 nmol/L; in assay [3] (setting [9]), 26.38 ± 1.81 nmol/L; in assay [3] (setting [10]) it was 24.42 ± 2.07 nmol/L. The TNF-α in assay [4] (setting [8]) came out at 645.36 ± 87.50 ng/L; in assay [4] (setting [9]) it was 671.09 ± 80.55 ng/L; in assay [4] (setting [10]), 627.56 ± 98.89 ng/L.

On to `O=c1c(Cc2ccc3c(c2)OCO3)coc2cc(O)cc(O)c12` [Formula I], for which the “Post-diastolic posterio rwall thickness” value was determined as 0.79 ± 0.09 mm in assay [1] (setting [5]), 0.64 ± 0.02 mm in assay [1] (setting [6]) and 0.67 ± 0.08 mm in assay [1] (setting [7]). For the same compound, the “Posterior wall thickness in systole” value was determined as 0.90 ± 0.06 mm in assay [1] (setting [5]), 0.87 ± 0.11 mm in assay [1] (setting [6]) and 0.90 ± 0.16 mm in assay [1] (setting [7]). Further, the CK-MB in assay [2] (setting [8]) turned out to be 15.73 ± 1.79 ng/mL; in assay [2] (setting [9]), 15.17 ± 1.63 ng/mL; in assay [2] (setting [10]), 15.72 ± 1.89 ng/mL. Moreover, the values for the cTn-T in assay [2] (setting [8]), in assay [2] (setting [9]) and in assay [2] (setting [10]) were 167.25 ± 24.56 ng/L, 165.79 ± 23.78 ng/L and 164.52 ± 19.68 ng/L, respectively. The cAMP was 27.73 ± 3.03 nmol/L in assay [3] (setting [8]), 27.42 ± 1.12 nmol/L in assay [3] (setting [9]) and 29.04 ± 5.17 ^ nmol/L in assay [3] (setting [10]). In addition, the figures for the TNF-α in assay [4] (setting [8]), in assay [4] (setting [9]) and in assay [4] (setting [10]) were 706.64 ± 91.15 ng/L, 699.02 ± 55.58 ng/L and 634.24 ± 98.58 ng/L, respectively.

With `CC(=O)S[C@@H]1CC2=CC(=O)CC[C@]2(C)[C@H]2CC[C@@]3(C)[C@@H](CC[C@@]34CCC(=O)O4)[C@H]12` [Spironolactone, reference compound], in assay [1] (setting [11]), the “Post-diastolic posterio rwall thickness” value worked out at 0.81 ± 0.07 mm and the “Posterior wall thickness in systole” value amounted to 1.01 ± 0.08 mm. In assay [2] (setting [12]), the CK-MB was 18.86 ± 1.40 ^ ng/mL and the cTn-T was 169.17 ± 21.95 ng/L. Moreover, the cAMP in assay [3] (setting [12]) was 29.34 ± 3.04 ^ nmol/L. Also, the TNF-α in assay [4] (setting [12]) was found to be 758.49 ± 72.35 ng/L.

Turning to `CCCc1nc2c(C)cc(-c3nc4ccccc4n3C)cc2n1Cc1ccc(-c2ccccc2C(=O)O)cc1` [Telmisartan, reference compound], in assay [1] (setting [13]), the “Post-diastolic posterio rwall thickness” value was found to be 0.65 ± 0.07 mm and the “Posterior wall thickness in systole” value is 0.79 ± 0.16 mm. For the same compound, in assay [2] (setting [14]), the CK-MB came to 12.72 ± 1.09 ng/mL and the cTn-T amounted to 134.07 ± 17.50 ng/L. In addition, in assay [3] (setting [14]), the cAMP is reported as 25.18 ± 1.10 nmol/L. For the same compound, the TNF-α in assay [4] (setting [14]) is listed as 616.87 ± 70.42 ng/L.
